Measured values as given in ChEMBL document CHEMBL3885861, “Open TG-GATES”.

Species: Rattus norvegicus
Assay: Open TG-GATES - Regimen: Single
Assay type: toxicity, organism-based, Sprague-Dawley
Set-up: regimen Single, gender Male, age 6 weeks
Conditions: in vivo, po, 300 mg/kg, route gavage, dose level High; for APTT / Bas / Eos / Fbg / Hb / Ht / Lym / MCH / MCHC / MCV / Mono / Neu / PT / Plat / RBC / Ret / WBC: tissue Blood; for KIDNEY_L / KIDNEY_R / KIDNEY_TOTAL: tissue Kidney; for LIVER: tissue Liver; for A/G / ALP / ALT / AST / BUN / CRE / Ca / Cl / DBIL / GLC / IP / K / LDH / Na / PL / RALB / TBIL / TC / TG / TP / gamma-GTP: tissue Plasma

Work on `NC(=O)N/N=C/c1ccc([N+](=O)[O-])o1` [NITROFURAZONE] yielded a TERMINAL_BW (3 h) of 181.2 g, an APTT (3 h) of 16.7 s and a Bas (3 h) of 0%. The Eos (3 h) was 0.6%, the Fbg (3 h) was 230.6 mg/dL and the Hb (3 h) was 12.3 g/dL. The Ht (3 h) was 38.2%, the Lym (3 h) was 70.4% and the MCH (3 h) was 21.7 pg. For the same compound, the MCHC (3 h) was 32.3%, the MCV (3 h) was 67 fL and the Mono (3 h) was 4.6%. The Neu (3 h) was 23.6%, the PT (3 h) was 14.9 s and the Plat (3 h) was 114.6 x10_4/uL. The RBC (3 h) was 569.8 x10_4/ul, the Ret (3 h) was 10.8% and the WBC (3 h) was 73.1 x10_2/uL. For the same compound, the KIDNEY_L (3 h) was 0.8 g, the KIDNEY_R (3 h) was 0.8 g and the KIDNEY_TOTAL (3 h) was 1.6 g. The LIVER (3 h) was 7.5 g, the A/G (3 h) was 0.9 and the ALP (3 h) was 1634 IU/L. The ALT (3 h) was 47 IU/L, the AST (3 h) was 81.6 IU/L and the BUN (3 h) was 11.8 mg/dL. It also gave a CRE (3 h) of 0.2 mg/dL, a Ca (3 h) of 11.1 mg/dL and a Cl (3 h) of 105.2 meq/L. For the same compound, the DBIL (3 h) was 0.002 mg/dL, the GLC (3 h) was 181.6 mg/dL and the IP (3 h) was 8.9 mg/dL. For the same compound, the K (3 h) was 3.9 meq/L, the LDH (3 h) was 47.8 IU/L and the Na (3 h) was 142 meq/L. It also gave a PL (3 h) of 135.8 mg/dL, an RALB (3 h) of 2.4 g/dL and a TBIL (3 h) of 0.056 mg/dL. It also gave a TC (3 h) of 78 mg/dL, a TG (3 h) of 29.4 mg/dL and a TP (3 h) of 5.2 g/dL. For the same compound, the gamma-GTP (3 h) was 1.6 IU/L, the TERMINAL_BW (6 h) was 181.5 g and the APTT (6 h) was 15.7 s. The Bas (6 h) was 0%, the Eos (6 h) was 1% and the Fbg (6 h) was 265 mg/dL. It also gave a Hb (6 h) of 12.7 g/dL, a Ht (6 h) of 39.5% and a Lym (6 h) of 71.2%. The MCH (6 h) was 21.5 pg, the MCHC (6 h) was 32.1% and the MCV (6 h) was 67 fL. It also gave a Mono (6 h) of 4%, a Neu (6 h) of 23.4% and a PT (6 h) of 14.6 s. The Plat (6 h) was 115.7 x10_4/uL, the RBC (6 h) was 589.4 x10_4/ul and the Ret (6 h) was 10.7%. The WBC (6 h) was 70.2 x10_2/uL, the KIDNEY_L (6 h) was 0.8 g and the KIDNEY_R (6 h) was 0.8 g. For the same compound, the KIDNEY_TOTAL (6 h) was 1.6 g, the LIVER (6 h) was 7.6 g and the A/G (6 h) was 0.9. It also gave an ALP (6 h) of 1281.4 IU/L, an ALT (6 h) of 44 IU/L and an AST (6 h) of 77 IU/L. It also gave a BUN (6 h) of 9.2 mg/dL, a CRE (6 h) of 0.2 mg/dL and a Ca (6 h) of 11 mg/dL. For the same compound, the Cl (6 h) was 105.4 meq/L, the DBIL (6 h) was 0.006 mg/dL and the GLC (6 h) was 171 mg/dL. The IP (6 h) was 9 mg/dL, the K (6 h) was 3.7 meq/L and the LDH (6 h) was 47.6 IU/L. For the same compound, the Na (6 h) was 142.2 meq/L, the PL (6 h) was 149 mg/dL and the RALB (6 h) was 2.5 g/dL. For the same compound, the TBIL (6 h) was 0.066 mg/dL, the TC (6 h) was 84.4 mg/dL and the TG (6 h) was 24.4 mg/dL. The TP (6 h) was 5.4 g/dL, the gamma-GTP (6 h) was 1.4 IU/L and the TERMINAL_BW (9 h) was 181 g. It also gave an APTT (9 h) of 15.4 s, a Bas (9 h) of 0% and an Eos (9 h) of 1%. For the same compound, the Fbg (9 h) was 282.4 mg/dL, the Hb (9 h) was 12.4 g/dL and the Ht (9 h) was 38.2%. The Lym (9 h) was 64.4%, the MCH (9 h) was 21.8 pg and the MCHC (9 h) was 32.3%. For the same compound, the MCV (9 h) was 67.4 fL, the Mono (9 h) was 3% and the Neu (9 h) was 30.4%. It also gave a PT (9 h) of 14.5 s, a Plat (9 h) of 120.7 x10_4/uL and an RBC (9 h) of 567.2 x10_4/ul. It also gave a Ret (9 h) of 10.7%, a WBC (9 h) of 63.1 x10_2/uL and a KIDNEY_L (9 h) of 0.8 g. The KIDNEY_R (9 h) was 0.8 g, the KIDNEY_TOTAL (9 h) was 1.7 g and the LIVER (9 h) was 7.5 g. For the same compound, the A/G (9 h) was 0.9, the ALP (9 h) was 1242 IU/L and the ALT (9 h) was 39.2 IU/L. It also gave an AST (9 h) of 79 IU/L, a BUN (9 h) of 10.4 mg/dL and a CRE (9 h) of 0.1 mg/dL. The Ca (9 h) was 10.8 mg/dL, the Cl (9 h) was 103.8 meq/L and the DBIL (9 h) was 0.006 mg/dL. The GLC (9 h) was 196 mg/dL, the IP (9 h) was 10.6 mg/dL and the K (9 h) was 3.6 meq/L. It also gave an LDH (9 h) of 69 IU/L, a Na (9 h) of 141 meq/L and a PL (9 h) of 135.2 mg/dL. For the same compound, the RALB (9 h) was 2.4 g/dL, the TBIL (9 h) was 0.062 mg/dL and the TC (9 h) was 78.8 mg/dL. It also gave a TG (9 h) of 23.2 mg/dL, a TP (9 h) of 5.2 g/dL and a gamma-GTP (9 h) of 1.4 IU/L. For the same compound, the TERMINAL_BW (24 h) was 167.8 g, the APTT (24 h) was 16.1 s and the Bas (24 h) was 0%. For the same compound, the Eos (24 h) was 0.5%, the Fbg (24 h) was 368.8 mg/dL and the Hb (24 h) was 14.1 g/dL. The Ht (24 h) was 42.9%, the Lym (24 h) was 69% and the MCH (24 h) was 21.6 pg. The MCHC (24 h) was 32.6%, the MCV (24 h) was 66 fL and the Mono (24 h) was 3.2%. The Neu (24 h) was 26.5%, the PT (24 h) was 15.8 s and the Plat (24 h) was 112.2 x10_4/uL. For the same compound, the RBC (24 h) was 651.8 x10_4/ul, the Ret (24 h) was 8.6% and the WBC (24 h) was 68.9 x10_2/uL. It also gave a KIDNEY_L (24 h) of 0.8 g, a KIDNEY_R (24 h) of 0.8 g and a KIDNEY_TOTAL (24 h) of 1.6 g. The LIVER (24 h) was 7 g, the A/G (24 h) was 0.9 and the ALP (24 h) was 1162.2 IU/L. For the same compound, the ALT (24 h) was 186 IU/L, the AST (24 h) was 88 IU/L and the BUN (24 h) was 15 mg/dL. For the same compound, the CRE (24 h) was 0.2 mg/dL, the Ca (24 h) was 10.6 mg/dL and the Cl (24 h) was 105.8 meq/L. It also gave a DBIL (24 h) of 0.0125 mg/dL, a GLC (24 h) of 174.8 mg/dL and an IP (24 h) of 9.7 mg/dL. It also gave a K (24 h) of 3.4 meq/L, an LDH (24 h) of 78.8 IU/L and a Na (24 h) of 142.8 meq/L. For the same compound, the PL (24 h) was 131.2 mg/dL, the RALB (24 h) was 2.4 g/dL and the TBIL (24 h) was 0.0825 mg/dL. For the same compound, the TC (24 h) was 83.8 mg/dL, the TG (24 h) was 39.8 mg/dL and the TP (24 h) was 5.3 g/dL. It also gave a gamma-GTP (24 h) of 0.8 IU/L.
